# Publication PMC6784244 (Toxins, 2019)
# “And” between values parts separate entries of the source, which are not always exact repeats. Equal values may be shown once. Read-outs that look alike come from different tables or passages of the source.
# Experiments:
# C. perfringens [1] = format: cell-based, Clostridium perfringens
# [2] = lipid monolayer at air-water interface on PBS pH 7.4, peptide 1 µM, initial pressure 10-30 mN/m, extrapolated to delta pressure 0
# Description: (§1) Peptide–lipid interaction was evaluated using reconstituted lipid monolayer at the air–water interface as previously described. Pure prokaryotic and eukaryotic lipids used were: POPC (1-palmitoyl-2-oleoyl-glycero-3-phosphocholine), POPE (1-palmitoyl-2-oleoyl-sn-glycero-3-phosphoethanolamine), POPG (1-palmitoyl-2-oleoyl-sn-glycero-3-phospho-(1’-rac-glycerol), and cardiolipin, all from Avanti Polar Lipid (Alabama, USA). LTA (Lipoteichoic acid from B. subtilis) was obtained from Invivogen SAS (Toulouse, France). Pure lipids were reconstituted in chloroform:methanol (2:1, v:v) at 1 mg/mL and stored at −20 °C under nitrogen. The interaction and insertion of the ENN and BEA into lipids were evaluated through the measurement of their critical pressure of insertion as previously described. Briefly, lipids were spread using a 50 µL Hamilton’s syringe at the surface of 800 µL of sterile PBS creating a lipid monolayer at the air–water interface. Lipids were added until the surface pressure reached the desired value. After 5–10 min of incubation allowing evaporation of the solvent and stabilization of the initial surface pressure, 8 µL of ENN or BEA diluted in sterile PBS at 100 µM were injected into the 800 µL sub-phase of PBS under the lipid monolayer (pH 7.4, volume 800 µL) using a 10 µL Hamilton syringe giving a final concentration of peptides of 1 µM, preliminary experiments having shown that this concentration gave optimal insertion. The variation of the surface pressure caused by peptide injection was then continuously monitored using a fully automated microtensiometer (µTROUGH SX, Kibron Inc., Helsinki, Finland) until reaching equilibrium (maximal surface pressure increase being usually obtained after 15–25 min). The critical pressure of insertion of each peptide was determined by changing the initial pressure of lipid monolayer (from 10 and 30 mN/m) and measuring the variation of pressure caused by the insertion of the peptide. The critical pressure of insertion of each peptide in a particular lipid was determined graphically and calculated as the theoretical value of initial pressure of lipid monolayer not permissive to peptide insertion, i.e., causing a variation of pressure equal to 0 mN/m.
# [3] = design: key: -- indicates the absence of interaction; conditions: lipid monolayer on PBS pH 7.4, peptide 1 µM, extrapolated to delta pressure 0; -- = absence of interaction
# Description: as §1
# [4] = design: species or system B. subtilis; key: -- indicates the absence of interaction; conditions: lipid monolayer on PBS pH 7.4, peptide 1 µM, extrapolated to delta pressure 0; -- = absence of interaction
# Description: as §1
# C. perfringens [5] = format: cell-based, Clostridium perfringens; remark: listed apart in the source
# C. perfringens [6] = format: cell-based, Clostridium perfringens; remark: listed apart in the source
# [7] = test system: Bacillus subtilis (ATCC 6633)
# [8] = test system: Nisin-resistant B. subtilis (DSMZ 347)
# [9] = test system: Clostridium perfringens (ATCC 13124)
# [10] = test system: Vancomycin-resistant Enterococcus faecalis (DSMZ 13591)
# [11] = test system: Staphylococcus aureus (ATCC CRM-6538P)
# [12] = test system: Methicillin-resistant S. aureus strain MRSA USA300
# [13] = test system: Acinetobacter baumannii (CIP 110431)
# [14] = test system: Escherichia coli (ATCC 8739)
# [15] = test system: Helicobacter pylori (ATCC 43504)
# [16] = test system: Pseudomonas aeruginosa (ATCC CRM-9027)
# [17] = test system: Mycobacterium smegmatis (mc2155, ATCC 700084); conditions: mc2155, 72 h
# [18] = test system: Aspergillus flavus (DSMZ 1959); conditions: DSMZ 1959, pH 7
# A. niger (ATCC 9142) = conditions: ATCC 9142, pH 7
# A. ochraceus (DSMZ 824) = conditions: DSMZ 824, pH 7
# [19] = test system: Candida albicans (DSMZ 10697); conditions: DSMZ 10697, 24 h, pH 7
# [20] = test system: Fusarium graminearum (DSMZ 1095); conditions: DSMZ 1095, pH 7
# [21] = test system: F. oxysporum (DSMZ 62316); conditions: DSMZ 62316, pH 7
# [22] = test system: F. verticillioides (DSMZ 62264); conditions: DSMZ 62264, pH 7
# [23] = test system: Penicillium verrucosum (DSMZ 12639); conditions: DSMZ 12639, pH 7
# [24] = test system: Stachybotrys chartarum (DSMZ 2144); conditions: DSMZ 2144, pH 7
# human erythrocytes = conditions: pH 7.4
# [25] = test system: HEK (human normal epidermal keratinocytes); conditions: 48 h
# [26] = test system: N87 (human gastric cell line); conditions: 48 h
# [27] = C. perfringens, 5 x MIC, 4 h, 37 °C, anaerobic, FM4-64FX membrane and DAPI DNA staining, confocal microscope
compound,measurement,setting,value
"CC1(C)S[C@@H]2[C@H](NC(=O)[C@H](N)c3ccc(O)cc3)C(=O)N2[C@H]1C(=O)O [Amoxicillin, reference compound]",Observed Morphology,C. perfringens [1]; [27],• Elongated cells (5–6 times compared to control) • Normally condensed DNA
"CC(C)[C@H]1OC(=O)[C@H](Cc2ccccc2)N(C)C(=O)[C@@H](C(C)C)OC(=O)[C@H](Cc2ccccc2)N(C)C(=O)[C@@H](C(C)C)OC(=O)[C@H](Cc2ccccc2)N(C)C1=O [BEA, Beauvericin]","critical pressure of insertion, POPC",[2],41.65 mN/m
same,"critical pressure of insertion, POPE",[2],32.46 mN/m
same,"critical pressure of insertion, POPG",[3],--
same,"critical pressure of insertion, LTA",[4],--
same,percentage of permeabilization at four times the MIC,C. perfringens [5],1.8 ± 2.8%
same,membrane depolarization at 100 µM,C. perfringens [6],59.1 ± 2.0%
same,membrane depolarization at four times their MIC,C. perfringens [6],63.8 ± 4.8%
same,membrane depolarization at their MIC,C. perfringens [6],38.3 ± 3.3% and 30–40%
same,Known/possible target,C. perfringens [1],Protein biosynthesis
same,Observed Morphology,C. perfringens [1],• No cell elongation • DNA condensed in 1–4 circles per cells
same,"MIC, B. subtilis",[7],6.25 to 12.5 µM
same,"MIC, B. subtilis NR",[8],6.25 to 12.5 µM
same,"MIC, C. perfringens",[9],6.25 µM
same,"MIC, E. faecalis",[10],12.5 µM
same,"MIC, S. aureus",[11],12.5 µM
same,"MIC, S. aureus MRSA",[12],6.25 to 12.5 µM
same,"MIC, A. baumannii",[13],>100 µM
same,"MIC, E. coli",[14],>100 µM
same,"MIC, H. pylori",[15],>100 µM
same,"MIC, P. aeruginosa",[16],>100 µM
same,"MIC, M. smegmatis",[17],25 µM
same,"MIC, A. flavus",[18],>100 µM
same,"MIC, A. niger",A. niger (ATCC 9142),>100 µM
same,"MIC, A. ochraceus",A. ochraceus (DSMZ 824),>100 µM
same,"MIC, C. albicans",[19],6.25 µM
same,"MIC, F. graminearum",[20],25 µM
same,"MIC, F. oxysporum",[21],>100 µM
same,"MIC, F. verticillioides",[22],>100 µM
same,"MIC, P. verrucosum",[23],>100 µM
same,"MIC, S. chartarum",[24],>100 µM
same,"HC50 (dose causing 50% hemolysis), Erythrocytes",human erythrocytes,118.9 ± 15.8 µM
same,IC50,[25],5.4 ± 0.9 µM
same,IC50,[26],27.5 ± 0.7 µM
"CO/N=C1\CN(c2nc3c(cc2F)c(=O)c(C(=O)O)cn3C2CC2)CC1CN (stereo not shown) [Gemifloxacin, reference compound]",Observed Morphology,C. perfringens [1]; [27],• Elongated cells (5–6 times compared to control) • Decondensed DNA • Chain formation
"CO[C@H]1/C=C/O[C@@]2(C)Oc3c(C)c(O)c4c(O)c(c(/C=N/N5CCN(C)CC5)c(O)c4c3C2=O)NC(=O)/C(C)=C\C=C\[C@H](C)[C@H](O)[C@@H](C)[C@@H](O)[C@@H](C)[C@H](OC(C)=O)[C@@H]1C [Rifampicin, reference compound]",Observed Morphology,C. perfringens [1]; [27],• No cell elongation • DNA condensed in one filament crossing the cells
"CN(C)[C@@H]1C(O)=C(C(N)=O)C(=O)[C@@]2(O)C(O)=C3C(=O)c4c(O)cccc4[C@@](C)(O)[C@H]3C[C@@H]12 [Tetracycline, reference compound]",Observed Morphology,C. perfringens [1]; [27],• Some cell elongation (1.5–2 times compared to control) • DNA condensed in 1–4 circles per cells
